Measurements as given in patent publication US20050209169A1, “Use of boswellic acid and its derivatives for inhibiting normal and increased leucocytic elastase or plasmin activity” (Hermann P.T. Ammon, priority 1995, published 2005).
pIC50, pKi: −log10 of the molar value.

Key:
[1] = target: T1, human leucocytic elastase (Homo sapiens, UniProt P08246); assay: Human leucocytic elastase activity in vitro, photometric, MeO-Suc-Ala-Ala-Pro-Val-p-nitroanilide substrate; assay type: biochemical; conditions: for inhibitory effect on human leucocytic elastase: concentration of 20 μM each in the test, reference substances; for remaining activity at 20 µM: 20 μM test compound, percentage of 100% controls, read-out: residual activity of human leucocytic elastase
T1 construct: purchased Calbiochem
T1 sequence (P08246 30-267): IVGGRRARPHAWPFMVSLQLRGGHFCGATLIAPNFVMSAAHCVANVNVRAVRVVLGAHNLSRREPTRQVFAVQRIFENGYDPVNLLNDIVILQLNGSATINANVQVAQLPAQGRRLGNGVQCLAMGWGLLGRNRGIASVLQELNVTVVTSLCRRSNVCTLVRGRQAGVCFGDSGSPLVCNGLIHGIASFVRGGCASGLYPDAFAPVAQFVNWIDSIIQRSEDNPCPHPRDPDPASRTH
Description: The effects which differing concentrations of acetyl-11-keto-β-boswellic acid (AKBA) had on the human leucocytic elastase in these three series of measurement are shown as percentage of 100% controls as mean values±S.D. of three independent measurements each.

human plasmin = target: T2, human plasmin (Homo sapiens, UniProt P00747); assay: Plasmin activity in vitro, photometric, substrate D-Ile-Phe-Lys-pNA; assay type: biochemical; conditions: for inhibition of plasmin activity, summary in words: in vitro test system, concentrations reachable in human blood after oral olibanum or frankincense extracts; for pIC50: human plasmin in vitro, FIG. 2, read-out: half-maximum inhibition constants (IC50) of plasmin activity
T2 construct: purchased SIGMA
T2 sequence (P00747 581-810 limits assumed): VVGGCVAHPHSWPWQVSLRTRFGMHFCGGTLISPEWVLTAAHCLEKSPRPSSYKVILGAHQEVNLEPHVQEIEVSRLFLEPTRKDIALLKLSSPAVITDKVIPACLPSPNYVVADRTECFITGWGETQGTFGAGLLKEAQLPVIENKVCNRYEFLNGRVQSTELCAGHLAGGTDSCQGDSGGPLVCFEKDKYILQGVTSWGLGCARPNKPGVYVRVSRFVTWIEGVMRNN
T2 sequence (P00747 97-580 partner limits assumed): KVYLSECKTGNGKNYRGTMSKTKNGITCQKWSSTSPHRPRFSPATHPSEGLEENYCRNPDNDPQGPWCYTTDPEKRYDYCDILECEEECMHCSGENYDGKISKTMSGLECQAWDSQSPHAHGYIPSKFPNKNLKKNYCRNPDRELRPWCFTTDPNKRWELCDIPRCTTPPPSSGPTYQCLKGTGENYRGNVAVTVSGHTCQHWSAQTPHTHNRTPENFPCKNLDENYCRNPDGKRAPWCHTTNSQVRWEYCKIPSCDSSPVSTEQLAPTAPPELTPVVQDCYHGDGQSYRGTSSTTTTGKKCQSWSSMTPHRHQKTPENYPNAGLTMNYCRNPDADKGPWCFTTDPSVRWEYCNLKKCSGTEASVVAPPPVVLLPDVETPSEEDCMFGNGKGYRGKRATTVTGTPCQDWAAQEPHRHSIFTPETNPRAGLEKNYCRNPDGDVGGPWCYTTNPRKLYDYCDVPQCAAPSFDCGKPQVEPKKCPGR
Method: The activity of human plasmin (SIGMA) was determined photometrically in vitro with the substrate D-Ile-Phe-Lys-pNA (Cs-Szabo et al., Thrombosis Res. 1980, 20: 199-206). The plasmin activity is referred to as the release of p-nitronaniline per minute (nmole/min) from the substrate as mean values±S.D. of n=3 measurements each.

chymotrypsin = chymotrypsin (Bos taurus, UniProt P00766); assay: Chymotrypsin activity in vitro, photometric, MeO-Suc-Ala-Ala-Pro-Phe-p-nitroanilide substrate
human leucoytic elastase = target: T3, human leucoytic elastase (Homo sapiens, UniProt P08246); conditions: literature, Ying et al. 1991, Biochem. J. 277: 521-526; read-out: Ki values, inhibition of human leucocytic elastase; cited from earlier work
T3 sequence (P08246 30-267): T1 sequence (P08246 30-267)

Q: Which “inhibitory effect on human leucocytic elastase” value (shortened to “inhibitory effect”) [1] does the source give for `CCCCC/C=C\C/C=C\C/C=C\C/C=C\CCCC(=O)O` [arachidonic acid] here?
A: Its value is “no inhibitory effect”.

Q: For amyrin, which “influence on plasmin activity” value (human plasmin; concentrations up to 50 μM (not shown)) is on record?
A: Its value is “does not influence significantly”.

Q: And the “inhibition of plasmin activity, summary in words” value (shortened to “inhibition of plasmin activity”) (human plasmin)?
A: The value was “not effective at all”.

Q: Which remaining activity at 20 µM [1] does the source give for `CC(=O)OC1CCC2(C)C(CCC3(C)C2C(=O)C=C2C4C(C)C(C)CCC4(C)CCC23C)C1(C)C(=O)O` (stereo not drawn) [AKBA, acetyl-11-keto-β-boswellic acid] here?
A: The remaining activity at 20 µM was 18%.

Q: What about the pIC50 ([1]; substrate concentrations of 50, 100 and 150 μM, 10% DMSO, room temperature, read-out: IC50 values, inhibition of human leucocytic elastase) of the same molecule?
A: The pIC50 was ~4.77.

Q: What about the pIC50 (human plasmin) of the same molecule?
A: Its pIC50 is 5.22 to 5.40.

Q: And the “inhibition of plasmin activity” value (human plasmin)?
A: The value was “inhibited almost completely”.

Q: What about the “chymotrypsin activity, of the control activity” value (“chymotrypsin activity” for short) (chymotrypsin; 50 μM test compound) of the same molecule?
A: The value was 89%.

Q: And the “chymotrypsin activity” value (chymotrypsin; 100 μM test compound)?
A: The value was 85%.

Q: With `CC(C)c1ccc2c(c1)c(SC(C)(C)C)c(CC(C)(C)C(=O)O)n2Cc1ccc(Cl)cc1` [MK886] as the molecule, how does the “inhibitory effect” value [1] read?
A: Its value is “no inhibitory effect”.

Q: With `CC1(C)[C@@H](O)CC[C@]2(C)[C@H]3C(=O)C=C4[C@@H]5C[C@@](C)(C(=O)O)CC[C@]5(C)CC[C@@]4(C)[C@]3(C)CC[C@@H]12` [glycerrhitinic acid] as the molecule, how does the “inhibitory effect” value [1] read?
A: The value was “no inhibitory effect”.

Q: For `C[C@]12CCC(=O)C=C1CC[C@@H]1[C@@H]2[C@@H](O)C[C@@]2(C)[C@H]1CC[C@]2(O)C(=O)CO` [cortisol], which “inhibitory effect” value [1] is on record?
A: Its value is “no inhibitory effect”.

Q: For `C[C@]12CC[C@H]3[C@@H](CCC4=CC(=O)CC[C@@]43C)[C@@H]1CC[C@@H]2O` [testosterone], which “inhibitory effect” value [1] is on record?
A: The value was “no inhibitory effect”.

Q: With `C[C@H]1[C@H](C)CC[C@]2(C)CC[C@]3(C)C(=CC[C@@H]4[C@@]5(C)CC[C@@H](O)[C@](C)(C(=O)O)[C@@H]5CC[C@]43C)[C@H]12` [β-BA, β-boswellic acid] as the molecule, how does the “inhibition of plasmin activity” value (human plasmin) read?
A: Its value is “inhibited almost completely”.

Q: With `C[C@H]1[C@H](C)CC[C@]2(C(=O)O)CC[C@]3(C)C(=CC[C@@H]4[C@@]5(C)CC[C@H](O)C(C)(C)[C@@H]5CC[C@]43C)[C@H]12` [ursolic acid] as the molecule, how does the pKi (human leucoytic elastase) read?
A: The pKi was 5.22 to 5.40.

Q: What about the remaining activity at 20 µM [1] of the same molecule?
A: Its remaining activity at 20 µM is 11%.

Q: What about the pIC50 (human plasmin) of the same molecule?
A: Its pIC50 is ~4.82.

Q: And the “inhibition of plasmin activity” value (human plasmin)?
A: Its value is “substantially weaker”.

Q: What about the “chymotrypsin activity” value (chymotrypsin; 50 μM test compound) of the same molecule?
A: Its value is 56%.

Q: What about the “chymotrypsin activity” value (chymotrypsin; 100 μM test compound) of the same molecule?
A: The value was 30%.

Q: Which “inhibitory effect” value [1] does the source give for `CC(Cc1ccc(O)c(O)c1)C(C)Cc1ccc(O)c(O)c1` (stereo not drawn) [NDGA] here?
A: The value was “no inhibitory effect”.
